Patent US8975290B2, “Methods and compositions for enhancing an immune response, blocking monocyte migration, amplifying vaccine immunity and inhibiting tumor growth and metastasis” (Colorado State University Research Foundation, priority 2013, dated 2015)
Where two headings read alike, the source gives them in different places.

Columns and labels:
[1] = cited from earlier work
[2] = tested on: human monocyte cell line THP-1; assay: Boyden chamber assay, human monocyte migration in response to a CCL2 (MCP-1) gradient; format: cell-based; conditions: dose dependent, FIG. 1 (Losartan), FIG. 3 (Ondansetron)
Description: The Boyden chamber assay is based on a chamber of two medium-filled compartments separated by a microporous membrane. In general, cells are placed in the upper compartment and are allowed to migrate through the pores of the membrane into the lower compartment, in which chemotactic agents are present. After an appropriate incubation time, the membrane between the two compartments is fixed and stained, and the number of cells that have migrated to the lower side of the membrane is determined. Experiments using this assay were performed as described in Mitchell et al. (2012) Int. Immunopharmacol. 15: 357-363 to assess the migration of monocytes. […] A Boyden chamber assay was performed (as described in Mitchell et al. (2012) Int. Immunopharmacol, supra) to assess the migration of human monocytes (i.e., the human monocyte cell line THP-1) in response to a CCL2 (MCP-1) gradient and to assess the ability of Ondansetron to inhibit monocyte migration in vitro.

dog monocytes = assay: Boyden chamber assay, dog monocyte migration in response to a CCL2 (MCP-1) gradient; format: cell-based
Description: The Boyden chamber assay is based on a chamber of two medium-filled compartments separated by a microporous membrane. In general, cells are placed in the upper compartment and are allowed to migrate through the pores of the membrane into the lower compartment, in which chemotactic agents are present. After an appropriate incubation time, the membrane between the two compartments is fixed and stained, and the number of cells that have migrated to the lower side of the membrane is determined. Experiments using this assay were performed as described in Mitchell et al. (2012) Int. Immunopharmacol. 15: 357-363 to assess the migration of monocytes.

inflammatory monocytes = assay: Footpad inflammation-induced monocyte migration assay (flow cytometry of draining popliteal lymph nodes); format: in vivo; conditions: mice, 24 h after vaccination, vs vaccine only
Description: Footpad inflammation-induced monocyte migration assays were performed as previously described (Mitchell et al. (2012), J. Immunology 189: 5612-5621) to determine whether Ondansetron inhibits monocyte migration in vivo in mice. Briefly, two groups of mice (n=4 per group) were injected with 50 μl of liposomal vaccine adjuvant in one footpad. The first group of mice was treated by injection of 3 mg/kg Ondansetron administered IP at the time of footpad injection and the Ondansetron injections were repeated 12, 24, and 36 hours following footpad injection. […] The third group received neither the vaccine nor the Ondansetron. Inflammatory monocyte migration to the draining popliteal lymph nodes was assessed in all three groups of mice via flow cytometry (as described in Mitchell et al. (2012), J. Immunology, supra) 24 hours following vaccination.
Briefly, two groups of mice (n=4 per group) were vaccinated in the right rear footpad. […] Inflammatory monocyte migration to the draining popliteal lymph nodes was assessed in all three groups of mice via flow cytometry (as described in Mitchell et al. (2012), J. Immunology, supra) 24 hours following vaccination.

monocytes = assay: Boyden chamber assay on blood samples of Losartan-treated dogs; format: in vivo
ovalbumin = assay: Anti-ovalbumin antibody titers after ovalbumin vaccination (humoral immunity); format: in vivo; conditions: mice, boost at day 10, vs vaccine only
Description: Briefly, two groups of mice (n=5) were vaccinated with 5 μg of ovalbumin. […] The second group of mice received no additional treatment following vaccination. Second vaccinations were repeated 10 days following the initial vaccinations.
To assess the effects of Ondansetron on humoral immunity, mice were treated with Ondansetron at the time of vaccination. Briefly, two groups of mice (n=4 per group) were vaccinated subcutaneously with 1 μg of ovalbumin in a liposomal adjuvant. The first group of mice received 3 mg/kg Ondansetron via i.p. injection at the time of vaccination, and at 12, 24, and 36 hours following vaccination. The second group of mice received no additional treatment following vaccination. A third group of mice received neither the vaccine nor the Ondansetron. Second vaccinations were repeated for the first two groups of mice 10 days following the initial vaccinations, and second Ondansetron treatments were repeated for the groups as described for the first cycle of vaccination.

spleen cells = assay: IFNγ secretion of spleen cells in response to ovalbumin restimulation (cellular immunity); format: in vivo; conditions: vaccinated mice treated concurrently with Losartan; restimulated in vitro 72 hours with 5 μg/ml ovalbumin; vs vaccine only; p<0.05 (FIG. 11)
Description: Two groups of mice were immunized as noted in Example 7 above. To determine whether cellular immunity was enhanced in the Losartan-treated mice, mice from both the first and second groups were euthanized, and their spleen cells were assayed to determine IFNγ secretion levels in response to ovalbumin restimulation. Splenectomies and restimulation assays for cellular immune responses were performed as previously described (Mitchell et al. (2012), J. Immunology, supra). Spleen cells were restimulated in vitro for 72 hours with 5 μg/ml ovalbumin protein.

A20-HA tumors = assay: A20 mouse B-cell lymphoma model, tumor vaccine responses; format: in vivo, mice
Description: The A20 mouse B-cell lymphoma model was used to assess the effects of Ondansetron on tumor vaccine responses. Briefly, two groups of mice (n=5 per group) with established d3 A20-HA tumors (i.e., tumors expressing HA) were vaccinated weekly for 3 weeks with HA antigen (1 μg per mouse in liposome adjuvant), either without or with concurrently administered ondansetron (3 mg/kg i.p., administered 4 times at 12 h intervals). A third group of mice received neither the HA nor the Ondansetron. Tumor measurements were made using calipers every 2-3 days. Mice were sacrificed when their tumors reached a diameter of 1.5 cm.
Labeled anti-CD11b antibodies were used to quantitate the numbers of infiltrating CD11b+ monocyte/macrophages in the tumor tissues.

[3] = Table 2, Comparison of ARB Pharmacokinetics

Compound: CCOc1nc2cccc(C(=O)O)c2n1Cc1ccc(-c2ccccc2-c2nnn[nH]2)cc1 [Candesartan]
- Bioavailability [1, 3]: 15%
- Biological Half-Life [1, 3]: 9 hours

Compound: CCCCC1=NC2(CCCC2)C(=O)N1Cc1ccc(-c2ccccc2-c2nnn[nH]2)cc1 [Irbesartan]
- Biological Half-Life [1, 3]: 11-15 hours

Compound: CCCCc1nc(Cl)c(CO)n1Cc1ccc(-c2ccccc2-c2nn[nH]n2)cc1 [Losartan]
- human monocyte migration (THP-1) in vitro [2]: potently blocked human monocyte migration (THP-1) in vitro in a dose dependent manner
- canine monocyte migration in vitro (dog monocytes; CCL2 (MCP-1) gradient, dose dependent, FIG. 2): potently blocked canine monocyte migration in vitro in a dose dependent manner
- canine monocyte migration in the presence of MCP-1 (dog monocytes; concentrations of 1 μg/ml and 10 μg/ml): blocked canine monocyte migration even in the presence of MCP-1
- migration of inflammatory monocytes to the draining lymph nodes (inflammatory monocytes; 30 mg/kg Losartan at injection and 12 h after, p<0.05 (FIG. 6)): significantly reduced
- monocyte migration in blood samples after treatment (monocytes; 3 dogs with cancer, 2 mg/kg/day for two weeks, pooled data, FIG. 8): Monocyte migration was inhibited
- monocyte migration in blood samples after treatment (monocytes; healthy dogs, 2 mg/kg/day for 48 hours, vs before treatment, FIG. 7): significantly inhibited
- anti-ovalbumin antibody titers (ovalbumin; 5 μg ovalbumin, 30 mg/kg Losartan at vaccination and 12, 24, 36 h after, p<0.05 (FIG. 9)): significantly higher anti-ovalbumin antibody titers
- IFNγ production by spleen cells (spleen cells): produced significantly more IFNγ

Compound: CCCc1nc(C(C)(C)O)c(C(=O)O)n1Cc1ccc(-c2ccccc2-c2nnn[nH]2)cc1 [Olmesartan]
- Bioavailability [1, 3]: 29%
- Biological Half-Life [1, 3]: 14-16 hours

Compound: Cc1nccn1CC1CCc2c(c3ccccc3n2C)C1=O (centres unmarked) [Ondansetron]
- human monocyte migration (THP-1) in vitro [2]: potently blocked THP-1 monocyte migration in vitro in a dose dependent manner
- migration of inflammatory monocytes to the draining lymph nodes (inflammatory monocytes; 3 mg/kg Ondansetron IP at footpad injection and 12, 24, 36 h after, p<0.001 (FIG. 4, 5)): significantly reduced
- anti-ovalbumin antibody titers (ovalbumin; 1 μg ovalbumin s.c. in liposomal adjuvant, 3 mg/kg Ondansetron i.p. at vaccination and 12, 24, 36 h after, p<0.05 (FIG. 10)): significantly higher anti-ovalbumin antibody titers
- infiltrating CD11b+ monocyte/macrophages in tumor tissues (A20-HA tumors; immunohistochemistry, vaccine with Ondansetron vs vaccine alone, FIG. 13): markedly fewer monocyte/macrophages
- tumor growth rates (A20-HA tumors; mice with A20-HA tumors, HA vaccine weekly for 3 weeks with ondansetron 3 mg/kg i.p. 4 times at 12 h intervals, vs vaccine only, FIG. 12): significantly reduced
- Biological Half-Life ([1]; text b221): about 3.9 hours

Compound: CCCc1nc2c(C)cc(-c3nc4ccccc4n3C)cc2n1Cc1ccc(-c2ccccc2C(=O)O)cc1 [Telmisartan]
- Bioavailability [1, 3]: 42-58%
